Assay results reported in patent publication US20070082841A1, “Ocular administration of immunosuppressive agents” (Aciont, Inc., priority 2005, published 2007).

Experiment: Ocular iontophoretic delivery of MPA in rabbits; amounts in eye tissues by HPLC
Assay type: in vivo, New Zealand white rabbits
Details: rabbit eye; iontophoresis 3 mA for 20 minutes, 20 μL of 0.6 M MPA in 1% agarose gel, 0.07 cm^2; 15 minutes after delivery
Method: Three New Zealand white rabbits were each fitted with ocular iontophoretic device on one eye. Each device contained 20 μL of 0.6 M mycophenolic acid (MPA) in 1% agarose gel. A vacuum was provided between the eyes of the rabbits and the ocular iontophoretic device by withdrawing 0.2 cc from the space therebetween. MPA was iontophoretically delivered from the cathodes of the devices on the conjunctiva/sclera near the limbus and the upper eyelid using constant current control from standard iontophoretic dose controller. The MPA was iontophoretically delivered through a surface area of 0.07 cm^2 at 3 mA for 20 minutes. The anode electrode was attached on the rabbit's ear, opposite the treatment eye. Rabbits were euthanized at 15 minutes following completion of the iontophoretic delivery. Treatment eyes were dissected and the amounts of MPA in the conjunctiva, sclera, retina, and vitreous were determined using HPLC assay.

MPA Amount, Conjunctiva: 30.45 µg
MPA Amount, Retina: 1.60 µg
MPA Amount, Sclera: 20.65 µg
MPA Amount, Total (combined total for all of the dissections): 60.75 µg
MPA Amount, Vitreous: 2.45 µg
SMILES: COc1c(C)c2c(c(O)c1C/C=C(\C)CCC(=O)O)C(=O)OC2 [MPA, mycophenolic acid]
